The source of these data is US7579365B2 (ZIOPHRAM Oncology, Inc., priority 1998, dated 2009).

The test system of one series is KB cell line. Nature of the series: XTT proliferation test/cytotoxicity test, KB cell line. The series is classed as cell-based. The conditions noted are these: KB tumor cells; for EC50: Homo sapiens, KB, read-out: XTT EC50 KB. The method, then: (§1) In this test system, the effect of substances on the proliferation behavior of tumor cell lines is investigated. In the course of this, the cytotoxic potential of these substances is determined. The test method is described in Scudiero et al. 1988, Cancer Res. 48, 4827.
(§2) The following tumor cell lines were employed in the investigations:
(§3) The KB cell line an epidermal carcinoma of the oral cavity,
(§4) the L1210 cell line a lymphatic leukemia of the mouse, the LNCAP cell line a prostate carcinoma and the SK-OV-3 cell line an ovarian carcinoma.

The next series has as its system L1210. Nature of the series: L1210 leukemia model in vivo (% ILS, survival time). Also on record: species or system mouse. The conditions noted are these: for ILS at 46.4 mg/kg: read-out: % ILS L1210. The text has this:
In the hollow fiber assay, both compounds were almost equally strongly active, while on L 1210 D-24851 was markedly more strongly active after oral and intraperitoneal administration than D-24241.

In the next series the test system is SK-OV-3 cell line. Nature of the series: XTT proliferation test/cytotoxicity test, SK-OV-3 cell line. The series is classed as cell-based. The conditions noted are these: for EC50: Homo sapiens, SK-OV-3, SK-OV-3 tumor cells, read-out: XTT EC50 SK-OV-3; for XTT EC50 SK-OV-3: SK-OV-3 tumor cells. Here is the method: as §1, §2, §3, §4
Another series has as its system L1210 cell line. Briefly: XTT proliferation test/cytotoxicity test, L1210 cell line. The series is classed as cell-based, mouse. The conditions noted are these: for EC50: Mus musculus, L1210, L1210 tumor cells, read-out: XTT EC50 L1210; for XTT EC50 L1210: L1210 tumor cells. The method, then: as §1, §2, §3, §4
In general terms: Formazan colour is commonly taken as a measure of viable cells.

For series [1] the following is noted: for Tox. p.o.: p.o. (Table 5).
For a further series, the system named is LNCAP cell line. Briefly: XTT proliferation test/cytotoxicity test, LNCAP cell line. The conditions noted are these: LNCaP tumor cells; for EC50: Homo sapiens, read-out: XTT EC50 LNCaP. The series is classed as cell-based. Here is the method: as §1, §2, §3, §4

≈ marks a conversion by molar mass, not a printed value. Like-named read-outs stand apart in the source and are kept apart here.

As for `COc1cccc2c1C(=O)c1c(O)c3c(c(O)c1C2=O)C[C@@](O)(C(=O)CO)C[C@@H]3O[C@H]1C[C@H](N)[C@H](O)[C@H](C)O1` [Adriamycin, reference compound], the concentration for a half-maximal effect (EC50) (commonly the concentration giving half of the maximal effect) came to 0.15 µg/mL (≈ 0.276 µM) in the series on KB cell line, 0.089 µg/mL (≈ 0.164 µM) in the series with SK-OV-3 cell line, 0.174 µg/mL (≈ 0.32 µM) with L1210 cell line and 0.17 µg/mL (≈ 0.313 µM) in the series on LNCAP cell line. The ILS – broadly, how much longer treated animals lived than controls – at 14.7 mg/kg in the series on L1210 (Mus musculus, L1210, iv, 1 × 14.7 mg/kg i.v.) was determined as 111%. Besides, in series [1] (i.v. (Table 5)), the Tox. i.v. result is “≈27.0 i.v. mg/kg”.
As for `N.N.O=C([O-])C1(C(=O)[O-])CCC1.[Pt+2]` [Carboplatin], the “% ILS L1210” value in the series with L1210 (1 × 100 mg/kg i.p.) was found to be 41% ILS. Moreover, the Tox. i.p. result in series [1] (i.p. (Table 5)) is given as “≈158.0 mg/kg”. For the same compound, in series [1], the Tox. p.o. entry was “≈841.0 p.o mg/kg”.
Regarding `O=P1(N(CCCl)CCCl)NCCCO1` (stereo not shown) [Cyclophosphamide, reference compound], the ILS at 46.4 mg/kg in the series with L1210 (Mus musculus, L1210, iv) was 40%. For the same compound, in series [1] (i.v. (Table 5)), the Tox. i.v. entry is given as “≈340.7 i.v. mg/kg”.
Turning to `C/C(=C\c1csc(C)n1)[C@@H]1C[C@@H]2O[C@]2(C)CCC[C@H](C)[C@H](O)[C@@H](C)C(=O)C(C)(C)[C@@H](O)CC(=O)O1` [Epothilone B, reference compound], in the series on KB cell line, the “XTT EC50 KB” value is “KB ~ 0.0002 μg/ml”. In addition, in the series with L1210 (1 × 10 mg/kg i.p.), the “% ILS L1210” value is listed as 44% ILS. In addition, in the series with SK-OV-3 cell line, the “XTT EC50 SK-OV-3” value was “SKOV3 ~ 0.0031 μg/ml”. The “XTT EC50 L1210” value in the series on L1210 cell line is “L1210 ~ 0.0017 μg/ml”. For the same compound, in series [1] (i.p. (Table 5)), the Tox. i.p. entry is “≈100.0 i.p. mg/kg”. For the same compound, in the series with LNCAP cell line, the “XTT EC50 LNCaP” value was “LNCAR ~ 0.014 μg/ml”.
In the case of `COc1cc([C@@H]2c3cc4c(cc3[C@@H](O[C@@H]3O[C@@H]5CO[C@@H](C)O[C@H]5[C@H](O)[C@H]3O)[C@H]3COC(=O)[C@H]23)OCO4)cc(OC)c1O` [Etoposide], in the series on L1210 (Mus musculus, L1210, ip, 1 × 46.4 mg/kg i.p.), the ILS at 46.4 mg/kg is 56%. The Tox. i.p. entry in series [1] (in vivo, ip) is “≈158.0 i.p. mg/kg”. For the same compound, the Tox. i.v. in series [1] (in vivo, iv) was >68.1 i.v. mg/kg.
With `O=P1(NCCCl)OCCCN1CCCl` (stereo not shown) [Ifosfamide, reference compound], the ILS at 316 mg/kg in the series on L1210 (Mus musculus, L1210, ip, 1 × x 316 mg/kg i.p.) was 89%. Moreover, in series [1] (i.p. (Table 5)), the Tox. i.p. entry is on record as “≈732 i.p. mg/kg”.
Take `C[C@@H]1[O][Pt]2([NH]CC3CCC3C[NH]2)[O]C1=O` (stereo partly shown) [Lobaplatin, reference compound]: the “% ILS L1210” value in the series with L1210 (1 × 14.7 mg/kg ip) is 55.0% ILS. For the same compound, the Tox. i.p. entry in series [1] (in vivo, ip) is reported as “≈34.0 i.p. mg/kg”.
For the compound `CCCCCCCCCCCCCCCCOP(=O)([O-])OCC[N+](C)(C)C` [Miltefosine], the “L1210 antitumor action (Table 5)” value in the series on L1210 (no dose given) is given as “no action”. In addition, in series [1] (i.p. (Table 5)), the Tox. i.p. entry is on record as “≈46.4 i.p. mg/kg”. The Tox. p.o. entry in series [1] was “≈464-1000 mg/kg”.
For the compound `O=C1c2c(O)ccc(O)c2C(=O)c2c(NCCNCCO)ccc(NCCNCCO)c21` [Mitoxantrone, reference compound], the EC50 with KB cell line was ~0.174 µg/mL (≈ 0.391 µM); in the series with SK-OV-3 cell line it was ~0.174 µg/mL (≈ 0.391 µM); with L1210 cell line, < 0.0003 µg/mL; in the series with LNCAP cell line, ~0.017 µg/mL (≈ 0.0382 µM). The compound also registered an ILS at 4.64 mg/kg in the series with L1210 (Mus musculus, L1210, iv, 1 × 4.64 mg/kg i.v.) of 144%. The compound further yielded a Tox. i.v. in series [1] (i.v. (Table 5)) of 16 i.v. mg/kg.
Regarding `C/C=C/[C@@H]1O[C@H]([C@H](O)/C=C/C=C(\C)C[C@@H](C)/C=C(C)\C=C\[C@H]2CC=CC(=O)O2)C[C@@H](O)[C@@H]1C` [Ratjadone, reference compound], the “XTT EC50 KB” value in the series on KB cell line was “KB < 0.003 μg/ml”. For the same compound, the “% ILS L1210” value in the series on L1210 (1 × 1.47 mg/kg i.p.) amounted to 22% ILS. Besides, the “XTT EC50 SK-OV-3” value in the series with SK-OV-3 cell line was “SKOV3 < 0.003 μg/ml”. Moreover, the “XTT EC50 L1210” value with L1210 cell line was “L1210 < 0.003 μg/ml”. Further, in series [1] (i.p. (Table 5)), the Tox. i.p. is given as ~16.0 mg/kg. Besides, the Tox. i.v. in series [1] (i.v. (Table 5)) is reported as ~30.0 i.v. mg/kg. Moreover, the “XTT EC50 LNCaP” value in the series with LNCAP cell line is recorded as “LNCAP < 0.003 μg/ml”.
On to `CC[C@]1(O)C[C@H]2CN(CCc3c([nH]c4ccccc34)[C@@](C(=O)OC)(c3cc4c(cc3OC)N(C=O)[C@H]3[C@@](O)(C(=O)OC)[C@H](OC(C)=O)[C@]5(CC)C=CCN6CC[C@]43[C@@H]65)C2)C1` [Vincristine, reference compound], for which the concentration for a half-maximal effect (EC50) is < 0.001 µg/mL with KB cell line, 0.003 µg/mL (≈ 0.00364 µM) with SK-OV-3 cell line, 0.004 µg/mL (≈ 0.00485 µM) in the series with L1210 cell line and 0.004 µg/mL (≈ 0.00485 µM) in the series on LNCAP cell line (LNCaP). In addition, the ILS at 1 mg/kg in the series with L1210 (Mus musculus, L1210, ip, 1 × 1.0 mg/kg i.p.) is 29%. Moreover, in series [1] (i.v. (Table 5)), the Tox. i.v. entry is listed as “≈3.0 i.v. mg/kg”.
